Reference: patent publication EP0565593B1, “REDUCING PESTICIDAL INTERACTIONS IN CROPS” (priority 1990, dated 1992)
Where two headings read alike, the source gives them in different places.

How the values were obtained:
Type in all cases: in vivo
Corn = test: Multi-crop greenhouse test, herbicide POE (Examples 62-64; Tables 61-63); details: COUNTER 15G and BEACON; Example 62
Experimental: (§1) Tests according to this invention in various crops indicate widespread application of the invention. In Examples 62-66 below are described tests with a variety of herbicides contacted with COUNTER® 15G in the presence and absence of MON-7400 (Antidote No. 12); MON-13900 (No. 1); MON-4660 (No. 16) and flurazole (No. 16). Those tests were conducted according to Procedures IV or V described above and illustrated further in other foregoing examples. Plants used in all tests were, for crops (as abbreviated in parentheses); cotton (COTT); soybean (SOBE); CORN, grain sorghum (GRSO); wheat (WHEA) and RICE, and the weeds giant foxtail (GIFT) and velvetleaf (VELE). The data in the tables below represent averages of two replications.
(§2) In this test the crops and weeds were planted 1.3 cm deep in 13.7 cm X 27.7 cm pans containing Dupo silt loam soil. The test safeners were applied in acetone solution and COUNTER 15G as dry granules to soil cover layers and incorporated by shaking in a bag. Treated cover layers were placed on seeded pans which were transferred to greenhouse benches and subirrigated. Herbicide was applied POE six (6) days after PPI initiation and observations of plant injury made ten (10) days later; results are shown in Table 61. The herbicide used in this example was BEACON (No. 8).
The test procedure described in Example 62 was repeated using ACCENT® (Herbicide No. 7) as the herbicide; the biocide and safeners were the same.

cotton (COTT) = test: Multi-crop greenhouse test, biocide, herbicide and safener applied to soil covers (Examples 65, 66; Tables 64, 65)
Experimental: as §1, §2
In another test in the several crops and weeds used in this test series, the herbicidal component was MON-12000 (No. 1); the other components were the same. the procedure used in this test was the same as that described in Example 62, modified to use a light overhead irrigation (about 0.32 cm/day) during days 4-7 of the test.
In yet another test in this series, XRD-498 (Herbicide No. 21) was used as the herbicidal component in contact with COUNTER 15G in the presence of the above safeners. The various components of the system (biocide, herbicide and safener) were applied concurrently to soil covers of the seeded plants.

Shattercane (SHCA) = system: Shattercane (SHCA)
Giant foxtail (GIFT) = test: Greenhouse test Procedure VI (Examples 59-61; Tables 58-60)
From the text: This procedure describes interaction among herbicide, biocide and antidote when the herbicide is incorporated in a soil cover layer and the biocide and the antidote are applied in a soil furrow containing crop seed before emergence of the crop. The soil and seeding depth were described in Procedure IV. A first container was designated as an untreated control, a second container was designated as a herbicide control, a third container was designated as a herbicide + biocide control and a fourth container as a herbicide + biocide + antidote test container. The biocide and antidote were formulated as granules. The biocide was applied to the soil furrows of the third and fourth containers at an application rate of 1.1 mg of active compound per cm of row. The antidote was applied to the soil furrow of the fourth container at an application rate of 0.37 mg of active compound per cm of row. A measured amount of the herbicide dispersed or dissolved in acetone was applied to a measured quantity of soil. The quantity of soil treated with the herbicide was thoroughly mixed to incorporate the herbicide. Samples of this soil were used to cover the seed beds of the second, third and fourth containers. For each test series, the seed bed of the first container was likewise covered by a soil layer not treated with herbicide and without biocide or antidote in the soil furrow.
The containers were then placed on a bench in a greenhouse. Watering was by subirrigation plus overhead irrigation after the plants emerged. All treatments were run in duplicate. Plant response was observed according to Procedure IV. Variations in this procedure will be noted in the examples.
The procedure used in this example involved the PPI application of biocide and safener as described in general Procedure VI above. The "primary" herbicide in this test was MON-12000 (Herbi-cide No. 1) in admixture with other herbicides designated as "co-herbicides", which included LASSO® (co-herbicide B); DUAL® (C); acetochlor (A); EPTAM® (D); butylate (E) and PURSUIT® (K).
The in-furrow treatments with blended COUNTER 15G and antidote mixtures was as described in above examples. MON-12000 and the co-herbicides were formulated in acetone and applied as tank mixtures, incorporated into Dupo silt loam soil with a rotary drum mixer. Subsamples were used to cover seeded and in-furrow treated 10.2 cm pots. Pots were placed on greenhouse benches and subirrigated. Plant responses were observed thirteen days after PPI initiation. Test results (average of two replications) are shown in Table 58, wherein giant foxtail (GIFT) was used in place of shattercane.
This test was conducted in the same manner used in Example 59. All biocide and antidote components were the same and in these tests XRD-498 (Herbicide No. 21) was the prime herbicide. Co-herbicides are shown in Table 59 together with test data.
In one other test conducted as described in the preceding examples in this series of tests, the herbicide PURSUIT® was used as the primary herbicide (in the context of this invention) together with the same insecticide and safeners as above and the co-herbicides shown in Table 60, together with test results.

COC(=O)COC(c1ccccc1)c1ccccc1 [Antidote No. 12, Acetic acid, (diphenylmethoxy)-, methyl ester]
corn injury (Corn): effectively reduced

COC(=O)COC(c1ccccc1)c1ccccc1 [compound 12]
% Inhibition COTT (cotton (COTT); Table 64, Herb. No. 1 0.018 Kg/Ha + Biocide No. 1 8.96 Kg/Ha + Antidote 4.48 Kg/Ha): 10% | % Inhibition COTT (cotton (COTT); Table 64, Herb. No. 1 0.07 Kg/Ha + Biocide No. 1 8.96 Kg/Ha + Antidote 4.48 Kg/Ha): 40% | % Inhibition COTT (cotton (COTT); Table 64, Herb. No. 1 0.28 Kg/Ha + Biocide No. 1 8.96 Kg/Ha + Antidote 4.48 Kg/Ha): 40% | % Inhibition COTT (cotton (COTT); Table 65, Herb. No. 1 0.018 Kg/Ha + Biocide No. 1 8.96 Kg/Ha + Antidote 4.48 Kg/Ha): 15% | % Inhibition COTT (cotton (COTT); Table 65, Herb. No. 1 0.07 Kg/Ha + Biocide No. 1 8.96 Kg/Ha + Antidote 4.48 Kg/Ha): 10% | % Inhibition COTT (cotton (COTT); Table 65, Herb. No. 1 0.28 Kg/Ha + Biocide No. 1 8.96 Kg/Ha + Antidote 4.48 Kg/Ha): 35% | % Inhibition 5 DAP SHCA (Shattercane (SHCA); Antidote 4.48 + Biocide No. 1 8.96 Kg/Ha PPI, Herb. No. 8 0.07, 5 DAP, before herbicide application): 0% | % Inhibition 13 DAP SHCA (Shattercane (SHCA); Antidote 4.48 + Biocide No. 1 8.96 Kg/Ha PPI, Herb. No. 8 0.07 POE, 13 DAP): 80% | % Inhibition SHCA (Shattercane (SHCA); Antidote 4.48 + Biocide No. 1 8.96 Kg/Ha PPI, Herbicide No. 7 0.28 POE, 13 days after planting): 75% | % Inhibition 13 DAP SHCA (Shattercane (SHCA); Herb. […], 13 DAP, after herbicide application): 85% | % Inhibition SHCA (Shattercane (SHCA); Table 14: Herbicide No. 7 (ACCENT) 0.84 Kg/Ha POE + Biocide No. 2 8.96 Kg/Ha PPI + antidote 4.48 Kg/Ha PPI, 13 days after planting, 8 days after herbicide): 75% | % Inhibition SHCA (Shattercane (SHCA); […], 13 days after planting, 8 days after herbicide): 90% | % Inhibition SHCA (Shattercane (SHCA); […], observed 8 days later (Table 32)): 80% | % Inhibition SHCA (Shattercane (SHCA); […], observed 8 days later (Table 33)): 40% | % Inhibition SHCA (Shattercane (SHCA); […], observed 10 days after herbicide application): 60% | % Inhibition 5 DAP SHCA (Shattercane (SHCA); in vivo): 15% | % Inhibition 13 DAP SHCA (Shattercane (SHCA); in vivo): 75% | % Inhibition GIFT (Giant foxtail (GIFT); Antidote + Biocide No. 1 in furrow, Herbicide No. 6 0.14 Kg/Ha PPI): 60% | % Inhibition GIFT (Giant foxtail (GIFT); Antidote + Biocide No. 1 in furrow, Herbicide No. 11 0.0044 Kg/Ha PPI): 0% | % Inhibition GIFT (Giant foxtail (GIFT); Antidote + Biocide No. 1 in furrow, Herbicide No. 12 0.0044 Kg/Ha PPI): 0% | % Inhibition GIFT (Giant foxtail (GIFT); Antidote + Biocide No. 1 in furrow, Herbicide No. 13 0.0011 Kg/Ha PPI): 0% | % Inhibition GIFT (Giant foxtail (GIFT); Antidote + Biocide No. 1 in furrow, Herbicide No. 13 0.0022 Kg/Ha PPI): 25% | % Inhibition GIFT (Giant foxtail (GIFT); Antidote + Biocide No. 1 in furrow, Herbicide No. 14 0.07 Kg/Ha PPI): 0% | % Inhibition GIFT (Giant foxtail (GIFT); Antidote + Biocide No. 1 in furrow, Herbicide No. 16 0.07 Kg/Ha PPI, 13 days): 35% | % Inhibition GIFT (Giant foxtail (GIFT); Antidote + Biocide No. 1 in furrow, Herbicide No. 17 0.14 Kg/Ha PPI, 13 days): 80% | % Inhibition GIFT (Giant foxtail (GIFT); Antidote + Biocide No. 1 in furrow, Herbicide No. 18 0.04 Kg/Ha PPI, 13 days): 50% | % Inhibition GIFT (Giant foxtail (GIFT); Antidote + Biocide No. 1 in furrow, Herbicide No. 20 1.12 Kg/Ha PPI, 13 days): 25% | % Inhibition GIFT (Giant foxtail (GIFT); Antidote + Biocide No. 1 in furrow, Herbicide No. 22 0.28 Kg/Ha PPI, 13 days): 20% | % Inhibition GIFT (Giant foxtail (GIFT); Antidote + Biocide No. 1 in furrow, Herbicide No. 24 0.14 Kg/Ha PPI, 13 days): 20% | % Inhibition GIFT (Giant foxtail (GIFT); Antidote + Biocide No. 1 in furrow, Herbicide No. 25 0.14 Kg/Ha PPI, 13 days): 25% | % Inhibition GIFT (Giant foxtail (GIFT); Antidote + Biocide No. 1 in furrow, Herbicide No. 26 2.24 Kg/Ha PPI, 13 days): 0% | % Inhibition GIFT (Giant foxtail (GIFT); Antidote + Biocide No. 1 in furrow, Herbicide No. 28 0.04 Kg/Ha PPI, 13 days): 35% | % Inhibition GIFT (Giant foxtail (GIFT); Herbicide No. 12 0.0044 Kg/Ha PPI + Biocide No. 1 in furrow, no antidote): 0% | % Inhibition GIFT (Giant foxtail (GIFT); Herbicide No. 12 0.0044 Kg/Ha PPI alone, average of two reps): 0%

CC1(C)OC(c2ccco2)CN1C(=O)C(Cl)Cl (stereo not shown) [Antidote No. 1, Oxazolidine, 3-(dichloroacetyl)-2,2-dimethyl-5-(2-furanyl)-]
corn injury (Corn): effectively reduced

O=C(OCc1ccccc1)c1sc(Cl)nc1C(F)(F)F [Antidote No. 7, 5-Thiazolecarboxylic acid, 2-chloro-4-(trifluoromethyl)-, (phenylmethyl) ester]
corn injury (Corn): effectively reduced
